According to ChEMBL document CHEMBL1275354, “Anticonvulsant activity of 2,4(1H)-diarylimidazoles in mice and rats acute seizure models” (Bioorg Med Chem, 2010):
Activity calls are given as the source filed them. The rule behind the calls is not given here.

Columns and labels:
Mus musculus [1] = test: Neurotoxicity in albino CF1 mouse assessed as minimal motor impairment at 30 mg/kg, ip after 4 hrs by rotarod test; type: toxicity, organism-based; design: dose 30 mg/kg, route intraperitoneal; conditions: in vivo
Mus musculus [2] = test: Anticonvulsant activity in albino CF1 mouse assessed as protection against maximal electroshock-induced seizures at 300 mg/kg, ip after 4 hrs; type: functional, organism-based; design: dose 300 mg/kg
Mus musculus [3] = test: Neurotoxicity in albino CF1 mouse assessed as minimal motor impairment at 30 to 300 mg/kg, ip after 0.5 hrs by rotarod test; conditions: in vivo
Mus musculus [4] = test: Neurotoxicity in albino CF1 mouse assessed as minimal motor impairment at 30 mg/kg, ip after 0.5 hrs by rotarod test; type: toxicity, organism-based; design: dose 30 mg/kg, route intraperitoneal; conditions: in vivo
Mus musculus [5] = test: Neurotoxicity in albino CF1 mouse assessed as minimal motor impairment at 100 mg/kg, ip after 0.5 hrs by rotarod test; type: toxicity, organism-based; design: dose 100 mg/kg, route intraperitoneal; conditions: in vivo
Mus musculus [6] = test: Anticonvulsant activity in albino CF1 mouse assessed as protection against maximal electroshock-induced seizures at 300 mg/kg, ip after 0.5 hrs; type: functional, organism-based; design: dose 300 mg/kg
Mus musculus [7] = test: Neurotoxicity in ip dosed albino CF1 mouse assessed as minimum dose required to cause toxicity after 4 hrs by rotarod test; type: organism-based; conditions: in vivo
Mus musculus [8] = test: Anticonvulsant activity in albino CF1 mouse assessed as protection against subcutaneous metrazole-induced seizures at 300 mg/kg, ip after 4 hrs; type: functional, organism-based; design: dose 300 mg/kg
Mus musculus [9] = test: Anticonvulsant activity in albino CF1 mouse assessed as protection against maximal electroshock-induced seizures at 30 mg/kg, ip after 4 hrs; type: functional, organism-based; design: dose 30 mg/kg
Mus musculus [10] = test: Anticonvulsant activity against maximal electroshock-induced seizures in ip dosed albino CF1 mouse assessed as minimum effective dose after 0.5 hrs; type: functional; conditions: read-out: MED
Mus musculus [11] = test: Neurotoxicity in albino CF1 mouse assessed as minimal motor impairment at 300 mg/kg, ip after 4 hrs by rotarod test; type: toxicity, organism-based; design: dose 300 mg/kg, route intraperitoneal; conditions: in vivo
Mus musculus [12] = test: Anticonvulsant activity in albino CF1 mouse assessed as protection against subcutaneous metrazole-induced seizures at 100 mg/kg, ip after 4 hrs; type: functional, organism-based; design: dose 100 mg/kg
Mus musculus [13] = test: Anticonvulsant activity against subcutaneous metrazole-induced seizures in ip dosed albino CF1 mouse assessed as minimum effective dose after 0.5 hrs; type: functional; conditions: albino CF1, 0.5 h, read-out: MED
Mus musculus [14] = test: Neurotoxicity in albino CF1 mouse assessed as minimal motor impairment at 300 mg/kg, ip after 0.5 hrs by rotarod test; type: toxicity, organism-based; design: dose 300 mg/kg, route intraperitoneal; conditions: in vivo
Mus musculus [15] = test: Anticonvulsant activity against maximal electroshock-induced seizures in ip dosed albino CF1 mouse assessed as minimum effective dose after 4 hrs; type: functional; conditions: read-out: MED
Mus musculus [16] = test: Anticonvulsant activity in albino CF1 mouse assessed as protection against maximal electroshock-induced seizures at 30 mg/kg, ip after 0.5 hrs; type: functional, organism-based; design: dose 30 mg/kg
Mus musculus [17] = test: Anticonvulsant activity against subcutaneous metrazole-induced seizures in ip dosed albino CF1 mouse assessed as minimum effective dose after 4 hrs; type: functional; conditions: albino CF1, 4 h, read-out: MED
Mus musculus [18] = test: Anticonvulsant activity in albino CF1 mouse assessed as protection against subcutaneous metrazole-induced seizures at 30 mg/kg, ip after 4 hrs; type: functional, organism-based; design: dose 30 mg/kg
Mus musculus [19] = test: Neurotoxicity in ip dosed albino CF1 mouse assessed as minimum dose required to cause toxicity after 0.5 hrs by rotarod test; type: organism-based; conditions: in vivo
Mus musculus [20] = test: Neurotoxicity in albino CF1 mouse assessed as minimal motor impairment at 30 to 300 mg/kg, po after 4 hrs by rotarod test; type: toxicity, organism-based; design: dose 30-300 mg/kg, route oral; conditions: in vivo
Mus musculus [21] = test: Anticonvulsant activity in albino CF1 mouse assessed as protection against subcutaneous metrazole-induced seizures at 30 mg/kg, ip after 0.5 hrs; type: functional, organism-based; design: dose 30 mg/kg
Mus musculus [22] = test: Anticonvulsant activity in albino CF1 mouse assessed as protection against subcutaneous metrazole-induced seizures at 300 mg/kg, ip after 0.5 hrs; type: functional, organism-based; design: dose 300 mg/kg
Mus musculus [23] = test: Anticonvulsant activity in albino CF1 mouse assessed as protection against subcutaneous metrazole-induced seizures at 100 mg/kg, ip after 0.5 hrs; type: functional, organism-based; design: dose 100 mg/kg
Mus musculus [24] = test: Neurotoxicity in albino CF1 mouse assessed as minimal motor impairment at 100 mg/kg, ip after 4 hrs by rotarod test; type: toxicity, organism-based; design: dose 100 mg/kg, route intraperitoneal; conditions: in vivo
Mus musculus [25] = test: Anticonvulsant activity in albino CF1 mouse assessed as protection against maximal electroshock-induced seizures at 100 mg/kg, ip after 4 hrs; type: functional, organism-based; design: dose 100 mg/kg
Mus musculus [26] = test: Anticonvulsant activity in albino CF1 mouse assessed as protection against maximal electroshock-induced seizures at 100 mg/kg, ip after 0.5 hrs; type: functional, organism-based; design: dose 100 mg/kg
Rattus norvegicus [27] = test: Neurotoxicity in albino Sprague-Dawley rat assessed as minimal motor impairment at 30 mg/kg, po by rotarod test; type: toxicity, organism-based; design: dose 30 mg/kg, route oral; conditions: in vivo
Rattus norvegicus [28] = test: Anticonvulsant activity in albino Sprague-Dawley rat assessed as protection against maximal electroshock-induced seizures at 30 mg/kg, po after 1 hr; type: functional, organism-based; design: dose 30 mg/kg
Rattus norvegicus [29] = test: Anticonvulsant activity in albino Sprague-Dawley rat assessed as protection against maximal electroshock-induced seizures at 30 mg/kg, po after 4 hrs; type: functional, organism-based; design: dose 30 mg/kg
Rattus norvegicus [30] = test: Anticonvulsant activity in albino Sprague-Dawley rat assessed as protection against maximal electroshock-induced seizures at 30 mg/kg, po after 0.5 hrs; type: functional, organism-based; design: dose 30 mg/kg
Rattus norvegicus [31] = test: Anticonvulsant activity in albino Sprague-Dawley rat assessed as protection against maximal electroshock-induced seizures at 30 mg/kg, po after 0.25 hrs; type: functional, organism-based; design: dose 30 mg/kg
Rattus norvegicus [32] = test: Anticonvulsant activity in albino Sprague-Dawley rat assessed as protection against maximal electroshock-induced seizures at 30 mg/kg, po after 2 hrs; type: functional, organism-based; design: dose 30 mg/kg

SMILES	Activity (Mus musculus [1])	Activity (Mus musculus [2])	Activity (Mus musculus [3])	Activity (Mus musculus [4])	Activity (Mus musculus [6])	MED (Mus musculus [7])	Activity (Mus musculus [8])	Activity (Mus musculus [9])	minimal effective dose (Mus musculus [10])	Activity (Mus musculus [11])	Activity (Mus musculus [12])	minimal effective dose (Mus musculus [13])	minimal effective dose (Mus musculus [15])	minimal effective dose (Mus musculus [17])	Activity (Mus musculus [18])	MED (Mus musculus [19])	Activity (Mus musculus [21])	Activity (Mus musculus [22])	Activity (Mus musculus [23])	Activity (Mus musculus [24])	further results
O=[N+]([O-])c1ccc(-c2c[nH]c(-c3ccccc3)n2)cc1	Non-toxic	Active	Non-toxic	Non-toxic	Active	> 300 mg/kg	inactive	inactive	100 mg/kg	Non-toxic	inactive	> 300 mg/kg	100 mg/kg	> 300 mg/kg	inactive	> 300 mg/kg	inactive	inactive	inactive	Non-toxic	Activity (Mus musculus [5]): Non-toxic; Activity (Mus musculus [14]): Non-toxic; Activity (Mus musculus [16]): inactive; Activity (Mus musculus [20]): Non-toxic; Activity (Mus musculus [25]): inactive
Clc1ccc(-c2nc(-c3ccccc3)c[nH]2)cc1	Non-toxic	inactive	Non-toxic	Non-toxic	inactive	> 300 mg/kg	inactive	inactive	> 300 mg/kg	Non-toxic	inactive	> 300 mg/kg	> 300 mg/kg	> 300 mg/kg	inactive	> 300 mg/kg	inactive	inactive	inactive	Non-toxic	Activity (Mus musculus [5]): Non-toxic; Activity (Mus musculus [26]): inactive; Activity (Mus musculus [14]): Non-toxic; Activity (Mus musculus [16]): inactive; Activity (Mus musculus [20]): Non-toxic; Activity (Mus musculus [25]): inactive
c1ccc(-c2c[nH]c(-c3cccnc3)n2)cc1	Non-toxic	Active	Non-toxic	Non-toxic	Active	100 mg/kg	inactive	inactive	100 mg/kg	–	inactive	100 mg/kg	100 mg/kg	> 300 mg/kg	inactive	100 mg/kg	inactive	Active	Active	Non-toxic	Activity (Rattus norvegicus [27]): Non-toxic; Activity (Rattus norvegicus [28]): inactive; Activity (Mus musculus [26]): Active; Activity (Rattus norvegicus [29]): inactive; Activity (Rattus norvegicus [30]): inactive; Activity (Rattus norvegicus [31]): inactive; Activity (Rattus norvegicus [32]): inactive; Activity (Mus musculus [16]): inactive; Activity (Mus musculus [25]): inactive
FC(F)(F)c1cccc(-c2c[nH]c(-c3cccc(C(F)(F)F)c3)n2)c1	Non-toxic	Active	Non-toxic	Non-toxic	inactive	> 300 mg/kg	inactive	inactive	> 300 mg/kg	Non-toxic	inactive	> 300 mg/kg	100 mg/kg	> 300 mg/kg	inactive	> 300 mg/kg	inactive	inactive	inactive	Non-toxic	Activity (Mus musculus [5]): Non-toxic; Activity (Mus musculus [26]): inactive; Activity (Mus musculus [14]): Non-toxic; Activity (Mus musculus [20]): Non-toxic
O=[N+]([O-])c1ccc(-c2nc(-c3cccc(C(F)(F)F)c3)c[nH]2)cc1	Non-toxic	Active	Non-toxic	Non-toxic	inactive	> 300 mg/kg	inactive	inactive	> 300 mg/kg	Non-toxic	inactive	> 300 mg/kg	100 mg/kg	> 300 mg/kg	inactive	> 300 mg/kg	inactive	inactive	inactive	Non-toxic	Activity (Mus musculus [5]): Non-toxic; Activity (Mus musculus [26]): inactive; Activity (Mus musculus [14]): Non-toxic; Activity (Mus musculus [16]): inactive; Activity (Mus musculus [20]): Non-toxic; Activity (Mus musculus [25]): inactive
COc1cccc(-c2c[nH]c(-c3ccccc3)n2)c1	Non-toxic	inactive	Non-toxic	Non-toxic	Active	> 300 mg/kg	inactive	inactive	> 30 mg/kg	Non-toxic	inactive	> 300 mg/kg	> 300 mg/kg	> 300 mg/kg	inactive	100 mg/kg	inactive	inactive	inactive	Non-toxic	Activity (Rattus norvegicus [27]): Non-toxic; Activity (Rattus norvegicus [28]): inactive; Activity (Mus musculus [26]): Active; Activity (Rattus norvegicus [29]): inactive; Activity (Rattus norvegicus [30]): inactive; Activity (Rattus norvegicus [31]): inactive; Activity (Rattus norvegicus [32]): inactive; Activity (Mus musculus [16]): inactive; Activity (Mus musculus [20]): Non-toxic
FC(F)(F)c1cccc(-c2c[nH]c(-c3ccc(Cl)cc3)n2)c1	Non-toxic	inactive	Non-toxic	Non-toxic	inactive	> 300 mg/kg	inactive	inactive	> 300 mg/kg	Non-toxic	inactive	> 300 mg/kg	> 300 mg/kg	> 300 mg/kg	inactive	> 300 mg/kg	inactive	inactive	inactive	Non-toxic	Activity (Mus musculus [5]): Non-toxic; Activity (Mus musculus [26]): inactive; Activity (Mus musculus [14]): Non-toxic; Activity (Mus musculus [16]): inactive; Activity (Mus musculus [20]): Non-toxic; Activity (Mus musculus [25]): inactive
